The target in data set [1] is T1, SCAN1 (mutant form of TDP1 with H493R substitution) (Homo sapiens, UniProt Q9NUW8, H493R).
T1 construct: made in house; host or cells: E. coli
Description: Fluorescence real-time assay on mutant TDP1 (SCAN1), single-stranded oligonucleotide. Type of data set: biochemical. The source says:
The recombinant tyrosyl-DNA phosphodiesterase 1 and the mutant form of TDP1 with substitution (H493R) were expressed in the E. coli system (plasmids pET16B-TDP1 and pET16B-SCAN1 were provided by Dr. K.W. Caldecott, University of Sussex, United Kingdom and by Dr. S. El-Khamisy, University of Sheffield, United Kingdom) and purified according to the previously described technique.
(§1) Conditions and details for our real-time detection of TDP1 activity using the single-stranded and hairpin fluorescent biosensors were reported in our previous work[47]. Briefly, the approach consists in fluorescence intensity measurement of the reaction of quencher removal from the fluorophore-quencher coupled DNA-oligonucleotide catalysed by TDP1 in the presence of inhibitor and in the absence of it (the control samples contained 1% DMSO). Reaction mixtures (200 µl) contained TDP1 buffer (50 mM Tris-HCl, pH 8.0, 50 mM NaCl, 7 mM β-mercaptoethanol), oligonucleotide (50 nM substrate of TDP1), testable inhibitor and purified TDP1 (1.5 nM). The reactions were incubated at a constant temperature of 26 °C in a POLARstar OPTIMA fluorimeter, BMG LABTECH, GmbH, to measure fluorescence every 55 s (Ex485/Em520 nm) during the linear phase (here data from 0 to 8 min). The average values of half maximal inhibitory concentration (IC50) were determined using an eleven-point concentration response curve in three independent experiments and calculated using MARS Data Analysis 2.0 (BMG LABTECH).
The IC50 values obtained by the fluorescence real-time assay on a single-stranded oligonucleotide (section 3.1) were higher than 100 μM.

In data set [2] the target is T2, TDP1 (Homo sapiens, UniProt Q9NUW8).
T2 construct: made in house; host or cells: E. coli
T2 sequence (Q9NUW8 whole entry): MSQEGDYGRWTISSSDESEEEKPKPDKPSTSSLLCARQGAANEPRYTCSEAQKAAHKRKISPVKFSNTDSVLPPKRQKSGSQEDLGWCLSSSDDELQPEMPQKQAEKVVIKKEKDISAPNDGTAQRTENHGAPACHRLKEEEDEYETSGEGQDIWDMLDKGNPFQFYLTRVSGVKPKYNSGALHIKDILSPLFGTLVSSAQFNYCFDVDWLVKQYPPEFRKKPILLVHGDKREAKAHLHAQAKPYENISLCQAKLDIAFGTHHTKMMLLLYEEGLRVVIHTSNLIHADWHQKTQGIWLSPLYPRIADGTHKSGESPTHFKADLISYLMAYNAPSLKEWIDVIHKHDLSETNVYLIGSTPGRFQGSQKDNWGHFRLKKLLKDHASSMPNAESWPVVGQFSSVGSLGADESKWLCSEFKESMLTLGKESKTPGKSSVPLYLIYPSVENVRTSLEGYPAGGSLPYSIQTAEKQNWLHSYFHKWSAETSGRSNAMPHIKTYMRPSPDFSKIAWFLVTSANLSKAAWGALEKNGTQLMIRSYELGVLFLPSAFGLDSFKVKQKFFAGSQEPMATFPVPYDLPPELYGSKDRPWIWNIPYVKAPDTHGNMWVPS
Description: Fluorescence anisotropy assay of TDP1-DNA substrate complex. In kind it is binding. The conditions noted are these: 3 nM single-strand oligonucleotide without quencher, 50 nM TDP1. The procedure:
Fluorescence anisotropy was measured by using a fluorescent single-strand DNA-oligonucleotide (3 nM) without quencher at the 3′-end in the presence of the inhibitor in different concentrations (Fluorescein control, CFlu = 10^−9 M). Reaction mixtures (200 µl) contained TDP1 buffer (50 mM Tris-HCl, pH 8.0, 50 mM NaCl, 7 mM β-mercaptoethanol), a single-strand DNA-oligonucleotide without quencher (3 nM substrate of TDP1), a testable inhibitor and the purified TDP1 (50 nM). The reactions were incubated at a constant temperature of 26 °C in a POLARstar OPTIMA fluorimeter, BMG LABTECH, GmbH, to measure fluorescence anisotropy every 55 s (Ex482/Em530 nm) during the linear phase (from 0 to 8 min) in two independent experiments.
Fluorescence anisotropy (r) was calculated by using the Equation (1): (1) r = (III–I⊥)/(III+ 2I⊥)
The dependence of the anisotropy on the concentration of the inhibitor was determined using a six-point response curve in two independent experiments and calculated using MARS Data Analysis 2.0 (BMG LABTECH).
To obtain some information about interaction of disaccharide nucleosides with TDP1, anisotropy of the fluorescent DNA substrate was measured. We used single-stranded oligonucleotide without a quencher at the 3′-end in the presence of testable inhibitors at different concentrations.

The target in data set [3] is T2, TDP1. Description: Steady-state kinetic analysis of TDP1 reaction, double-stranded (hairpin) substrate. The conditions noted are these: for Ki: Cornish-Bowden method, read-out: Inhibition constant, KI. In kind it is biochemical. On the procedure:
(§2) To determine the kinetic parameters: apparent maximum rate of enzymatic reaction (Vmax), Michaelis constant (KM), constant of inhibition (KI), and possible inhibition mechanism, steady-state kinetic experiments were carried out at five fixed concentrations of substrate with variation of inhibitor concentrations. The standard reaction mixtures (200 μl) contained 50 nM, 100 nM, 200 nM, 500 nM or 1000 nM substrate, testable inhibitor, 1.5 nM recombinant human TDP1 and reaction buffer components (50 mM Tris-HCl, pH 8.0, 50 mM NaCl, 7 mM β-mercaptoethanol). After addition of the enzyme, the reaction mixtures were incubated at a constant temperature of 26 °C and measured in a POLARstar OPTIMA fluorimeter, BMG LABTECH, GmbH, to measure fluorescence every 55 s (Ex485/Em520 nm) during the linear phase (data from 0 to 8 min). The initial data (kinetic curves) were obtained in three independent experiments and statistically processed in software OriginPro 8.6.0.
(§3) Values of the inhibition constant (KI) were determined using Cornish–Bowden method. Similar experiments were performed for all seven tested inhibitors on two types of DNA substrates, and the results are shown in Table 4.

In data set [4] the test system is WI-38 cell line (noncancerous fibroblasts derived from lung tissue). The data set can be described thus: MTT test, cytotoxicity and combination with topotecan, WI-38. The conditions noted are these: WI-38 non-cancerous cell line. Type of data set: cell-based, human. On the procedure:
(§4) Tumour cell line A549 (adenocarcinomic human alveolar basal epithelial cells) and noncancerous cell line WI-38 (fibroblasts derived from lung tissue of a 3 months gestation […] fetus) were used in cell-based experiments to determine the cytotoxicity of inhibitors and their effect on antitumour drug topotecan using standard MTT test[48]. Cells were incubated in Iscove’s Modified Dulbecco’s Medium (IMDM) supplemented with 10% fetal bovine serum and 40 µg/ml gentamicin, 10 U/ml penicillin, […], 0.25 µg/ml amphotericin at 37 °C and 5% CO2 for 24 h in a CO2 incubator; the optical density of the final solution was measured in the wells of the microplate at 570 nm and 620 nm wavelengths using a MultiScan FC (Thermo Scientific) microplate reader.
(§5) To study the effect of inhibitors on the cytotoxic effect of a well-known antitumour drug, the topotecan of the manufacturer “ACTAVIS GROUP PTC ehf.” was used. First of all, the 50% cytotoxic concentration (CC50) for topotecan and each inhibitor were determined to produce a defined single-agent effect. Second, three independent MTT-tests were performed with each inhibitor in combination with topotecan. Then, the synergistic coefficient (SC) was calculated according to the following formula (2)[49]: (2) SC= CC50 tpc,(+I)/CC50 tpc+CC50 I, (+tpc)/CC50 I,
(§6) CC50 tpc,(+I) and CC50 I,(+tpc) are the concentrations of topotecan and inhibitor used in combination to achieve 50% drug effect. CC50 tpc and CC50 I are the concentrations for single agents to achieve the same effect. SC values of less than, equal to, or more than 1 indicates synergy, additivity, and antagonism, respectively. The results were calculated and statistically processed in Microsoft Excel.

In data set [5] the target is T2, TDP1. The data set can be described thus: Steady-state kinetic analysis of TDP1 reaction, single-stranded substrate. In kind it is biochemical. The conditions noted are these: for Ki: Cornish-Bowden method, read-out: Inhibition constant, KI. On the procedure:
as §2
Vmax and KM decrease proportionally (Figure 6(A,B)), which corresponds to the uncompetitive type of inhibition, according to the general equation of the rate of product formation in the Michaelis–Menten kinetics.
as §3

Data set [6] has as its system A-549 cell line (adenocarcinomic human alveolar basal epithelial cells). The data set can be described thus: MTT test, cytotoxicity and combination with topotecan, A-549. In kind it is cell-based. The conditions noted are these: A-549 cells; for Synergistic coefficient (SC) with topotecan: MTT, inhibitor in combination with topotecan, SC < 1 indicates synergy; for Effect on cytotoxic effect of topotecan (in words): non-toxic inhibitor concentrations. The procedure:
as §4, §5, §6

A further data set relates to PARP1. On the set-up: method as in PMID 24079274. The conditions noted are these: cited from earlier work.
In data set [7] the target is T2, TDP1. The data set can be described thus: Real-time fluorescence detection of TDP1 activity, single-stranded FAM/BHQ biosensor. Type of data set: biochemical. The conditions noted are these: for Inhibitory effect on TDP1 activity (in words): single-stranded fluorescent biosensor, primary screening. The procedure:
as §1
To discover inhibitors of TDP1 we recently developed original single-stranded and hairpin fluorophore–quencher coupled DNA-biosensors for real-time measurement of TDP1 cleavage activity. The single-stranded substrate is a 16-mer oligonucleotide containing both 5′-FAM fluorophore donor and a quenching 3′-BHQ moiety (Figure 1(A)). When the quencher is removed by TDP1, the fluorescence intensity increases and can be measured by fluorimeter (TDP1 catalysed reaction on biosensor is shown in Figure 3(A). Fluorescence intensity declines in the presence of inhibitor, the resulting curves of the dependence of TDP1 residual activity as a function of the concentration of inhibitors were obtained using 4-parameter logistic regression fit, which was used to calculate IC50 values[47]^,[58].
For primary screening, the effect of a large group of disaccharide nucleosides and their hydrophobic derivatives on human recombinant TDP1 activity has been evaluated by fluorescent method on a single-stranded substrate described above.

T1 sequence (Q9NUW8 whole entry H493R): as the sequence (Q9NUW8 whole entry) above, with H493R counted along it

For the compound `CC(C)[Si]1(C(C)C)OC[C@H]2O[C@@H](n3ccc(=O)[nH]c3=O)[C@H](O[C@@H]3O[C@H](COC(=O)c4ccccc4)[C@@H](OC(=O)c4ccccc4)[C@H]3OC(=O)c3ccccc3)[C@@H]2O[Si](C(C)C)(C(C)C)O1` [Compound 21], the IC50 in data set [1] was greater than 100 µM. Besides, the “Change of fluorescence anisotropy with inhibitor concentration” value on TDP1 [2] is “significant decrease in the anisotropy”. Besides, at TDP1 [3], the Type of inhibition entry is “Mixed” and the inhibition constant (Ki) was found to be 0.4 ± 0.3 µM. Besides, in data set [4], the “Synergy with topotecan (in words)” value is on record as “demonstrated synergy with topotecan”. In addition, at TDP1 [5], the Type of inhibition result is reported as “Mixed” and the Ki was determined as 0.3 ± 0.2 µM. Besides, in data set [6], the “Synergistic coefficient (SC) with topotecan” value is on record as “less than or equal to 0.7” and the “Effect on cytotoxic effect of topotecan (in words)” value was “significant increase of cytotoxic effect of topotecan”.
`Cc1cn([C@H]2C[C@H](O[C@@H]3O[C@H](CO)[C@@H](O)[C@H]3O)[C@@H](CO)O2)c(=O)[nH]c1=O` [Compound 24]: in the data set on PARP1, the IC50 was 38 ± 4 µM. Also, the “Inhibitory effect on TDP1 activity (in words)” value on TDP1 [7] was “not inhibited”.
With `Cc1cn([C@H]2C[C@H](O[C@@H](C=O)O[C@@H](C=O)CO)[C@@H](CO)O2)c(=O)[nH]c1=O` [Compound 29], the IC50 in the data set on PARP1 is 25 ± 3 µM. Further, on TDP1 [7], the “Inhibitory effect on TDP1 activity (in words)” value is “did not lead to the noticeable inhibitory activity”.
`O=C(OC[C@H]1O[C@@H](O[C@H]2C[C@H](n3cc(I)c(=O)[nH]c3=O)O[C@@H]2CO)[C@H](OC(=O)c2ccccc2)[C@@H]1OC(=O)c1ccccc1)c1ccccc1` [Compound 41] had an IC50 in data set [1] greater than 100 µM. For the same compound, on TDP1 [2], the “Change of fluorescence anisotropy with inhibitor concentration” value is listed as “anisotropy remained unchanged”. In addition, at TDP1 [3], the Type of inhibition entry is “Uncompetitive” and the Ki was 2.1 ± 0.5 µM. Also, the “Synergy with topotecan (in words)” value in data set [4] is listed as “demonstrated synergy with topotecan”. Besides, on TDP1 [5], the Type of inhibition result is “Uncompetitive” and the Ki worked out at 0.6 ± 0.3 µM. For the same compound, at TDP1 [7] (single-stranded fluorescent biosensor 50 nM, TDP1 1.5 nM, 26 °C, read-out: IC50 (half-maximal inhibitory concentration) of TDP1 activity), the IC50 came out at 2.8 ± 0.2 µM. Besides, in data set [6], the “Synergistic coefficient (SC) with topotecan” value was “less than or equal to 0.7” and the “Effect on cytotoxic effect of topotecan (in words)” value is reported as “significant increase of cytotoxic effect of topotecan”.

The values are drawn from publication PMC6136360, “Novel group of tyrosyl-DNA-phosphodiesterase 1 inhibitors based on disaccharide nucleosides as drug prototypes for anti-cancer therapy” (Journal of Enzyme Inhibition and Medicinal Chemistry, 2018).
